Measurements: patent US10765680B2, “Combination of a MCL-1 inhibitor and a taxane compound, uses and pharmaceutical compositions thereof” (priority 2017, dated 2020)

Legend:
[1] = system: BT-549 breast cancer cell line; test: 72 hours CellTiter-Glo proliferation assay, BT-549; format: cell-based; settings: single agent, read-out: Abs IC50
Description: Compounds were dissolved in 100% DMSO (Sigma, Catalog # D2438-50 ML) at a stock concentration of 10 mM and stored at −20° C. until use. Compounds were arrayed in 2 ml deep 96-well plates (Greiner bio-one, catalog number 780271) serially diluted 3-fold. Compound 1 was used over a concentration range of 0.0-10.0 μM. Paclitaxel was used over a concentration range of 0.0-1.0 μM in breast cancer cells and 0.0-2.0 μM range in lung cancer cells.
All cell lines were purchased from the American Type Culture Collection and cultured according to vendor recommendations. […] All cell lines were determined to be free of mycoplasma contamination by a PCR detection assay performed at Idexx Radil (Columbia, Mo., USA) and authenticated by SNP analysis. […] Cells were expanded to T-75 flasks and assessed for viability using a Beckman-Coulter ViCell counter prior to plating. […]
Cell proliferation was measured in 72 hours CellTiter-Glo™ (CTG) assays and all results shown are the result of at least triplicate measurements. […] After 72 hours of compound treatment the effects of compounds on cell proliferation was determined using the CellTiter-Glo™ Luminescent Cell Viability Assay (Promega, Catalog # G7573). This is a homogeneous method to determine the number of viable cells in culture based on quantitation of the ATP present, which signals the presence of metabolically active cells. […]

[2] = system: PDX models resistant to docetaxel; test: PDX models resistant to docetaxel, efficacy; format: in vivo, female Swiss Nude mice; settings: Compound 1 70 mg/kg IV once a week, liposomal formulation
Description: PDX models whose resistance to docetaxel has been confirmed in vivo were tested. Each treatment group included 5 female Swiss Nude mice, aged from 6 to 8 weeks old. The treatment started when xenografts reached a mean tumor volume of ˜120-150 mm^3. Groups of mice were then randomly affected to the different treatments. The number of grafted animals depended on the homogeneity of the tumor growth.
Formulated in a liposomal formulation, Compound 1 was administered intravenously at 70 mg/kg once a week. The formulation had to be prepared extemporaneously. Paclitaxel diluted in 0.9% NaCl was given ip at 25 mg/kg. Paclitaxel was given QW 16 hours before the administration of Compound 1. The administration schedule of the different treatments is defined as follows: […]
Tumor sizes were measured twice a week and weights of individual mice were measured once a week. Treatments were done until the median tumor volume of the most responsive group started to regrow. Mice were followed after the stop of the treatment to compare the time to relapse between the groups. […]

COc1ccccc1-c1nccc(COc2ccccc2C[C@@H](Oc2ncnc3sc(-c4ccc(F)cc4)c(-c4ccc(OCCN5CCN(C)CC5)c(Cl)c4C)c23)C(=O)O)n1 [Compound 1, (2R)-2-{[(5Sa)-5-{3-chloro-2-methyl-4-[2-(4-methylpiperazin-1-yl)ethoxy]phenyl}-6-(4-fluorophenyl)thieno[2,3-d]pyrimidin-4-yl]oxy}-3-(2-{[2-(2-methoxyphenyl)pyrimidin-4-yl]methoxy}phenyl)propanoic acid]
IC50 [1]: > 10 µM | inhibition of tumor growth, single agent [2]: insufficient in inhibiting tumor growth
